# Results reported in patent US4977161A, “Isoxazolopyridine type mevalonolactones” (Nissan Chemical Industries, Ltd., priority 1988, dated 1990).
# Legend:
# cholesterol biosynthesis = test: Test C: Inhibition of cholesterol biosynthesis in vivo; design: species or system male Sprague-Dawley rats; details: oral, 0.2 mg/kg
# Experimental: Male Sprague-Dawley rats weighing about 150 g were fed normal Purina chow diet and water ad libitum, and exposed to 12 hours light/12 hours dark lighting pattern
# (2:00 PM -2:00 AM dark) prior to use for in vivo inhibition test of cholesterol biosynthesis. Animals were separated groups consisting of five rats as to be average mean body weight in each groups. Test compounds at dosage of 0.02-2.0 mg/kg body weight (0.4 ml/100 g body weight), were dissolved in water or suspended in 0.5% methyl cellulose and orally administered at 2-3 hours before mid-dark (8:00 PM), while cholesterol biosynthesis reaches to maximum in rats. As control, rats were orally administered only water or vehicle. At 90 minutes after sample administration, rats were injected intraperitoneally with 10 μCi of [2-^14 C]sodium acetate at volume of 0.2 ml per one. 2 Hours later, blood samples were obtained and serum were separated immediately. Total lipids were extracted according to the method of Folch et al. and saponified with EtOH-KOH. Nonsaponifiable lipids were extracted with petroleum ether and radio activity incorporated into nonsaponifiable lipids was counted.
# Inhibitory activity was indicated as percent decrease of counts in testing groups (DPM/2 ml serum/2 hours) from that in control group.
# [1] = test system: cholesterol biosynthesis in Hep G2 cells; test: Test B-1: Inhibition of cholesterol biosynthesis in culture cells (Hep G2); format: cell-based; details: Homo sapiens, HepG2, 100×10^-9 M/l, [2-14C]sodium acetate added at 0 hr, read-out: Inhibition activities by Test B-1
# Experimental: Hep G2 cells at over 5th passage were seeded to 12 well plates and incubated with Dulbecco's modified Eagle (DME) medium containing 10% of fetal bovine serum (FBS) at 37° C., 5% CO2 until cells were confluent for about 7 days. Cells were exposed to the DME medium containing 5% of lipoprotein deficient serum (LpDS) prepared by ultracentrifugation method for over 24 hours. Medium was changed to 0.5 ml of fresh 5% LpDS containing DME before assay and 10 μl of test compound solution dissolved in water or DMSO were added. 0.2 μCi of [2-^14 C]sodium acetate (20 μl) was added at 0 hr(B-1) or 4 hrs(B-2) after addition of compounds. After 4 hrs further incubation with [2-^14 C] sodium acetate, medium was removed and cells were washed with phosphate buffered saline (PBS) chilled at 4° C. Cells were scraped with rubber policeman and collected to tubes with PBS and digested with 0.2 ml of 0.5 N KOH at 37° C. Aliquot of digestion was used for protein analysis and remaining was saponified with 1 ml of 15% EtOH-KOH at 75° C. for 1 hour. Nonsaponifiable lipids were extracted with petroleum ether and ^14 C radioactivity was counted. Counts were revised by cell protein and indicated with DPM/mg protein. Inhibitory activity of compounds was indicated with IC50.
# With respect to the compounds of the present invention, the inhibitory activities against the cholesterol biosynthesis in which HMG-CoA reductase serves as a rate limiting enzyme, were measured by the above Test A and B. The results are shown in Tables 2 and 3.
# In Table 3, the inhibition activities of the test compounds at a concentration of 100×10^-9 M/l, are shown.
# ICR male mice = test: Test D: Acute toxicity; format: in vivo; details: oral, 0.5% CMC suspension, group of three mice; dose not given
# Experimental: A 0.5% CMC suspension of a test compound was orally administered to ICR male mice (group of three mice). The acute toxicity was determined based on the mortality after seven days.
# [2] = test system: cholesterol biosynthesis in which HMG-CoA reductase serves as a rate limiting enzyme; test: Test A: Inhibition of cholesterol biosynthesis from acetate in vitro; format: biochemical, male Wistar rat; details: for Relative activities by Test A: based on the activities of CS-514 by Test A being evaluated to be 1
# Experimental: Enzyme solution was prepared from liver of male Wistar rat billialy connulated and discharged bile for over 24 hours. Liver was cut out at mid-dark and microsome and supernatant fraction which was precipitable with 40-80% of solution of ammonium sulfate (sup fraction) were prepared from liver homogenate according to the modified method of Knauss et. al.; Kuroda, M., et. al., Biochim. Biophys. Acta, 489, 119 (1977). For assay of cholesterol biosynthesis, microsome (0.1 mg protein) and sup fraction (1.0 mg protein) were incubated for 2 hours at 37° C. in 200 μl of the reaction mixture containing ATP; 1 mM, Glutathione; 6 mM, Glucose-1phosphate; 10 mM, […]; 0.25 mM, NADP; 0.25 mM, CoA; 0.04 mM and 0.2 mM [2-14C]sodium acetate (0.2 μCi) with 4 μl of test compound solution dissolved in water or dimethyl sulfoxide. To stop reaction and saponify, 1 ml of 15% EtOH-KOH was added to the reactions and heated at 75° C. for 1 hour. Nonsaponifiable lipids were extracted with petroleum ether and incorporated ^14 C radioactivity was counted. Inhibitory activity of compounds was indicated with IC50.
Relative activities by Test A [2],Structure (SMILES),percent decrease of counts relative to the control group (DPM/2 ml serum/2 hours) (cholesterol biosynthesis),inhibition at 0.1 µM [1],"acute toxicity, mortality after seven days (ICR male mice)","IC50 ([2]; rat liver microsome and sup fraction, [2-14C]sodium acetate, 2 hours at 37° C.)"
–,"CCOC(=O)CC(=O)CC(O)/C=C/c1c(C(C)C)nc2onc(C)c2c1-c1ccc(F)cc1 (stereo not drawn) [Compound II-1, Ethyl (E)-7-[4'-(4""-fluorophenyl)-3'-methyl-6'-(1""-methylethyl)isoxazolo[-5,4-b]pyridin-5-yl]-5'-hydroxy-3-oxohepto-6-enoate]",–,52.6%,–,–
–,"CC[C@H](C)C(=O)O[C@H]1C[C@H](O)C=C2C=C[C@H](C)[C@H](CC[C@@H](O)C[C@@H](O)CC(=O)O)[C@H]21 [CS-514, reference compound]",34%,18.4%,–,9 nM
1.6,CCOC(=O)CC(O)CC(O)/C=C/c1c(C(C)C)nc2onc(C)c2c1-c1ccc(F)cc1 (stereo not drawn) [Compound I-1-1],–,50.1%,–,–
–,CCOC(=O)CC(O)CC(O)/C=C/c1c(C(C)C)nc2onc(-c3ccccc3)c2c1-c1ccc(F)cc1 (stereo not drawn) [Compound I-1-2],–,57.3%,–,–
1.3,"Cc1noc2nc(C(C)C)c(/C=C/C(O)CC(O)CC(=O)O)c(-c3ccc(F)cc3)c12 (stereo not drawn) [Compound I-5-1, Sodium (E)-7-[4'-(4""-fluorophenyl)-3'-methyl-6'-(1""-methylethyl)isoxazolo[5,4-b]pyridin-5'-yl]-3,5-dihydroxyhept-6-enoate]",–,–,–,–

Structure (SMILES),Relative activities by Test A [2],percent decrease of counts relative to the control group (DPM/2 ml serum/2 hours) (cholesterol biosynthesis),inhibition at 0.1 µM [1],"acute toxicity, mortality after seven days (ICR male mice)","IC50 ([2]; rat liver microsome and sup fraction, [2-14C]sodium acetate, 2 hours at 37° C.)"
CC(C)c1nc2onc(-c3ccccc3)c2c(-c2ccc(F)cc2)c1/C=C/C(O)CC(O)CC(=O)O (stereo not drawn) [Compound I-5-2],0.6,34.3%,43.2%,only one animal of the three animals died,–
